Measurements published in patent publication US8198291B2, “Intranasal opioid compositions” (University of Kentucky Research Foundation, priority 2000, dated 2012).

How the values were obtained:
[1] = Pharmacokinetics of butorphanol formulation without benzethonium chloride, Pfeiffer Unitdose Second Generation device; format: in vivo, human; conditions: single 2 mg intranasal dose, unit-dose device
Excerpt: This formulation had the following spray pattern function when sprayed from the Pfeiffer Unitdose Second Generation device onto an impaction plate from at various distances.
The formulation had the following function and properties when administered to human subjects via the Pfeiffer Unitdose Second Generation spray device.

[2] = Bioavailability/bioequivalence of intranasal butorphanol formulation, unit-dose vs multi-dose spray device; format: in vivo, human
Procedure: This example compares bioavailability of a butorphanol formulation when administered using a unit-dose or multi-dose delivery device. The formulation contains 10 mg butorphanol tartrate, 6.5 mg sodium chloride, 1.0 mg citric acid, 0.20 mg benzethonium chloride in purified water with 1.2 mg sodium hydroxide and hydrochloric acid added to adjust the pH to 5.0. The multi-dose sprayer purports by its label to administer 0.1 ml of liquid composition by metering upon activation by the user. The formulation had the following function and properties when administered to human subjects via the Pfeiffer Unitdose Second Generation spray device.
The second delivery system employed to administer the butorphanol compositions was a unit-dose disposable intranasal applicator that is commercially available from Pfeiffer of America under the designation “Unitdose Second Generation.” Each of the Pfeiffer spray applicators was charged with sufficient liquid to deliver a 0.1 mL dose of the butorphanol test formulation. The glass containers were filled using a pipette under clean conditions, sealed and assembled to the applicator. Each of the applicators was weighed prior to use and after use. Qualified medical personnel administered, one dose into each nostril, after which the applicator was recovered for weighing. In the case of the unit-dose applicators (test formulation), two devices were used for each patient, both of which were discarded following the post-use weighing. The results of these studies of the method and system of the invention and the comparative prior art method follow.
This example assesses the bioequivalence of a butorphanol formulation administered from the unit-dose or multi-dose sprayers described above. The test formulation comprises 1 ml of STADOL NS containing 10 mg butorphanol tartrate, 6.5 mg sodium chloride, 1.0 mg citric acid, 0.20 mg benzethonium chloride in purified water with 1.2 mg sodium hydroxide and hydrochloric acid added to adjust the pH to 5.0. The multi-dose sprayer accompanying STADOL NS purports, by its label, to administer 0.1 ml of liquid. The unit-dose delivery device delivers 0.1 ml of liquid.
The second analysis was to determine whether the intrasubject variabilities of the two spray devices are equal. The study was initiated with 16 subjects, 15 of which completed the study to provide data for this analysis; one subject dropped out after the second period. The following analysis considers both raw and normalized data, with the latter standardized with respect to the dose dispensed.
For both the raw and normalized data, log transformations are applied to the pharmacokinetic endpoints Cmax, AUC ([…]), and AUC(inf.). A mixed effects model was considered for each parameter. Fixed effects for the factors sequence (4 levels), period 3 levels) and formulation (2 levels) were included in the model. Additionally, gender, as well as the interactions between gender and each of sequence, period and formulation was included as a factor in each model to determine whether separate analyses would be necessary for males and females. A total of seven models were considered: Tmax, log of raw Cmax values, log of normalized Cmax values, log transformed values for raw and normalized AUC(last), and log values for raw and normalized AUC(inf.). […] In addition, the lack of significance of the effects included in each model indicate that there was no evidence of unequal carryover between the delivery system of the prior art and that in one embodiment of the present invention.
The mean levels of butorphanol from analysis of the subject's blood plasma reported in pg/ml are plotted against time in FIGS. 1 and 2. The concentration of drug for the unit-dose was unexpectedly higher than that of the multi-dose system. The testing for bioequivalence was done using the method of two one-sided t-test (as described by Bolton, S., Pharmaceutical Statistics. Marcel Dekker, Inc., New York, 1997, pages 415 ff.). […]

[3] = 2 mg intranasal dose, Pfeiffer Unitdose Second Generation spray device, formulation with benzethonium chloride
[4] = 90% CI, line between normCmax and normAUCinf, exponentiated, unit-dose vs multi-dose
[5] = 90% CI, normalized to dispensed dose, exponentiated, unit-dose vs multi-dose
[6] = 90% CI, raw data, exponentiated, unit-dose vs multi-dose
[7] = 90% confidence interval, unit-dose (test) vs multi-dose (reference)
[8] = intranasal, multi-dose spray pump

O=C(O)C(O)C(O)C(=O)O.Oc1ccc2c(c1)[C@@]13CCCC[C@@]1(O)[C@@H](C2)N(CC1CCC1)CC3 [butorphanol tartrate]
Tmax [1]: about 0.25 hr
AUC(0-t) [2, 3]: about 10661 pg*hr/ml
Cmax [2, 3]: about 5230 pg/ml
Tmax [2, 3]: about 0.234 hr
log(AUClast) (second line of the table), Lower Conf Limit for Ratio of Test/Reference [2, 4]: 0.921
log(AUClast) (second line of the table), Upper Conf Limit for Ratio of Test/Reference [2, 4]: 1.290
log(normAUCinf), Lower Conf Limit for Ratio of Test/Reference [2, 5]: 0.937
log(normAUCinf), Upper Conf Limit for Ratio of Test/Reference [2, 5]: 1.220
log(normCmax), Lower Conf Limit for Ratio of Test/Reference [2, 5]: 0.897
log(normCmax), Upper Conf Limit for Ratio of Test/Reference [2, 5]: 1.589
log (AUClast), Lower Conf Limit for Ratio of Test/Reference [2, 6]: 1.037
log (AUClast), Upper Conf Limit for Ratio of Test/Reference [2, 6]: 1.540
log (Cmax), Lower Conf Limit for Ratio of Test/Reference [2, 6]: 1.031
log (Cmax), Upper Conf Limit for Ratio of Test/Reference [2, 6]: 1.855
log(AUCinf), Lower Conf Limit for Ratio of Test/Reference [2, 6]: 1.050
log(AUCinf), Upper Conf Limit for Ratio of Test/Reference [2, 6]: 1.461
Tmax, Lower Conf Limit for Ratio of Test/Reference [2, 7]: 0.749
Tmax, Upper Conf Limit for Ratio of Test/Reference [2, 7]: 1.132
AUC(0-t) [2, 8]: 9.329 ng·h/mL
Cmax [2, 8]: 4.072 ng/mL
Tmax [2, 8]: 14.7 min
area under the curve from multi-dose device as percent of that of the test (unit-dose) ([2]; multi-dose vs unit-dose device): 90%
higher area under the curve of test device compared to reference device ([2]; unit-dose vs multi-dose device): 10%
higher serum levels of test device compared to reference device ([2]; unit-dose vs multi-dose device): 10%
